Results published in PMC9437721, “Identification and characterization of two Isatis indigotica O-methyltransferases methylating C-glycosylflavonoids” (Horticulture Research, 2022).
Read-outs that look alike come from different tables or passages of the source.

Test system: T1, IiOMT2
T1 construct: N-terminal His6-SUMO tag kept (pE-SUMO), E. coli Rosetta (DE3), Ni-NTA
Assay: O-methyltransferase assay, UPLC, Michaelis-Menten fit
Type: biochemical, Isatis indigotica
Details: 480 μM SAM, Tris-HCl pH 9.0, 45 °C
Excerpt: O-methyltransferase assay, UPLC, Michaelis-Menten fit on IiOMT2

`O=c1cc(-c2ccc(O)c(O)c2)oc2cc(O)c([C@@H]3O[C@H](CO)[C@@H](O)[C@H](O)[C@H]3O)c(O)c12` [compound 1, isoorientin] showed a Km (read-out: Isoorientin / IiOMT2) of 62.1 ± 16.1 µM.

For `O=c1cc(-c2ccc(O)c(O)c2)oc2cc(O)cc(O)c12` [compound 2, luteolin], the Km (read-out: Luteolin / IiOMT2) was 77 ± 12.6 µM.
